The text below walks through data of ChEMBL document CHEMBL3137356, “MMV Box Cryptosporidium parvum screening set”.

For orientation: Inhibition means the relative decrease from the control value, in per cent.

The subject of the assay is Cryptosporidium parvum. As to the kind of experiment: MMV: Cryptosporidium parvum oocysts (Iowa Strain) were prepared for use by treatment with 10 mM HCl (37 degrees C, 10 min) followed by 2 mM sodium taurocholate in phosphate-buffered saline (PBS) with Ca2+ and Mg2+ (16 degrees C, 10 min) in order to stimulate excystation. The high-throughput screen was carried out by inoculating >90% confluent human ileocecal adenocarcinoma (HCT-8) cells (ATCC) with ~5.5 x 10^3 primed oocysts per well. Experimental compounds or DMSO (vehicle) were added three hours after infection, and cells were incubated for 48 hours. It counts as functional.

As for `CCOc1ccc(-c2nonc2NC(=O)c2cccc(C)c2)cc1OCC`, the Inhibition was found to be 2.223%.
The value for `Br.CCn1c2c(c(=N)c3c1CCC3)CCCC2` was 9.729%; that for `COc1ccc(-c2cc3c(nn2)-c2ccccc2C3=O)cc1` was -19.28%; that for `COc1ccc(-c2cc3c(SCC(=O)Nc4cc(C(F)(F)F)ccc4Cl)nccn3n2)cc1` was -78.4%.
The value for `Cc1ccc(N2C(=O)C3C(C2=O)C2(c4ccccc4)C(=O)C3(c3ccccc3)C(c3ccccc3)=C2c2ccccc2)cc1` (configuration not stated) was -46.86%.
Turning to `Nc1ccn([C@@H]2O[C@H](CO)[C@@H](O)[C@H]2O)c(=O)n1` [CYTIDINE], the Inhibition is 73.84%.
As to `COc1ccc(-n2ccnc2SCC(=O)Nc2cc(C)ccc2C)c(OC)c1`, the Inhibition was -14.53%.
In the case of `CCCCNc1nc(NC(C)(C)C)nc(NC(C)(C)C)n1` it was 20.51%.
In the case of `OC1CCCCC1C1(NC(=S)Nc2ccccc2)CCCCC1` (configuration not stated) it was 3.232%; in that of `Nc1ccc(-c2nc3cc(Oc4ccc(Oc5ccc6[nH]c(-c7ccc(N)cc7)nc6c5)cc4)ccc3[nH]2)cc1`, -48.18%; in that of `CCCc1c(CC)c(=N)c2ccccc2n1C`, -20.98%.
Turning to `O=C(Nc1ccc(N2CCCCC2)c(Cl)c1)c1ccc(Br)o1`, the Inhibition is recorded as -27.15%.
In the case of `CC(Oc1ccc(NC(=O)c2cccs2)cc1)C(=O)c1ccc(Cl)cc1` (configuration not stated) it was 19.15%; in that of `CCCc1cc(O)c2c3c(c(=O)oc2c1)CN(C)CC3`, -49.5%; in that of `CN(C)CCCNCc1ccc(-c2ccc(F)c(Cl)c2)o1.Cl`, -9.329%.
In the case of `CC(C)CNC(=O)c1c(N)n(CCc2ccccc2F)c2nc3ccccc3nc12` it was -31.92%; in that of `CCOc1ccc(Nc2ccnc3cc(Cl)ccc23)cc1`, -43.83%.
The value for `CCCCCCc1cc2cc(-c3csc(C=Cc4ccccc4)n3)c(=O)oc2cc1O` was 10.86%; that for `Cl.Oc1ccccc1CNCC12CC3CC(CC(C3)C1)C2` was -10.2%.
Turning to `Oc1ccccc1CN1CCC2(CCCN(Cc3ccccc3F)C2)C1` (configuration not stated), the Inhibition is -2.723%.
As for `CCN1CCCC1CNc1[nH]cnc2c3cc(Cl)ccc3nc1-2` (configuration not stated), the Inhibition was -14.57%.
In the case of `O=C(Nc1ccc(Cl)c(Cl)c1)Nc1ccc(Cl)c(Cl)c1` it was 79.74%; in that of `CC1CC2=C(CC1CNCCCN(C)C)C(C)(C)CCC2` (configuration not stated), 42.26%; in that of `COc1cccc(C=Cc2nc(=O)c3ccccc3o2)c1OC`, 44.65%.
With `Cc1ccc(-c2nc3ccccc3o2)cc1NCc1cc(Cc2ccccc2)ccc1O`, the Inhibition worked out at 20.55%.
In the case of `Cc1ccc(-c2cc(C(=O)Nc3ccc(S(=O)(=O)N4CCCCC4)cc3)[nH]n2)c(O)c1` it was -59.17%.
For the compound `COc1ccc(C2=C(c3ccc(OC)cc3)C3(c4ccccc4)C(=O)C2(c2ccccc2)C2C(=O)N(c4ccc(C)cc4)C(=O)C23)cc1` (configuration not stated), the Inhibition was 63.25%.
Consider `COc1cccc(O)c1CN1CCC2(CCCN(Cc3ccc(F)cc3)C2)C1` (configuration not stated), for which the Inhibition is listed as 46%.
In the case of `OCCNc1nc(Nc2ccc(Cl)c(Cl)c2)nc2ccccc12` it was 12.96%; in that of `COc1ccc(C)c2sc(N(Cc3cccnc3)C(=O)c3ccc(C#N)cc3)nc12`, -2.161%; in that of `CCOc1cc2c(cc1OCC)C(c1cc(Cl)ccc1O)NCC2` (configuration not stated), -2.297%.
Take `O=C1c2ccccc2C2=Nc3ccccc3SC(c3cccc(F)c3)C12` (configuration not stated): the Inhibition is -5.793%.
